Where two headings read alike, the source gives them in different places.
Key:
S. pyogenes = assay: Broth microdilution MIC (Example 11); conditions: Streptococcus pyogenes
Acinetobacter baumannii = assay: Broth microdilution MIC (Example 12); conditions: Acinetobacter baumannii
S. agalactiae = assay: Broth microdilution MIC (Example 11); conditions: Streptococcus agalactiae
E. faecalis = assay: Broth microdilution MIC (Example 11); conditions: Enterococcus faecalis, VRE, VRE Lev^R Cip^R Ery^R
S. pneumoniae = assay: Broth microdilution MIC (Example 11); conditions: Streptococcus pneumoniae
[1] = tested on: Staphylococcus aureus (MRSA); assay: Broth microdilution MIC (Example 11)
Klebsiella pneumoniae [2] = assay: Broth microdilution MIC (Example 11)
[3] = tested on: Pseudomonas aeruginosa strain PA01; assay: Bacterial killing curves with and without CF patient sputum; parameters: time to sterilization below the limit of detection: dose or concentration left out as unconfirmed
Pseudomonas aeruginosa [4] = assay: Broth microdilution MIC (Example 12); conditions: Pseudomonas aeruginosa
Klebsiella pneumoniae [5] = assay: Broth microdilution MIC (Example 12); conditions: Klebsiella pneumoniae
Enterobacter cloacae = assay: Broth microdilution MIC (Example 11); conditions: ATCCBAA2468
Pseudomonas aeruginosa [6] = assay: Broth microdilution MIC (Example 11); conditions: Pseudomonas aeruginosa
Escherichia coli = assay: Broth microdilution MIC (Example 11)

CC(S)C(C)S.[Bi] (stereo not shown) [BisBDT, bismuth-2,3-butanedithiol] showed an MIC (S. pyogenes; S. pyogenes MMX 3068, Ery^R) of 0.12 µg/mL, an MIC (S. pyogenes; S. pyogenes MMX 3820, ERY^R CLI^R) of 0.5 µg/mL and an MIC (S. pyogenes; S. pyogenes MMX 3919, ERY^R) of 0.03 µg/mL. For the same compound, the MIC (S. pyogenes; S. pyogenes MMX 3929, ERY^R CC^R) was 0.5 µg/mL, the MIC (S. pyogenes; S. pyogenes MMX 5091, ERY^R CC^R) was 1 µg/mL and the MIC (Acinetobacter baumannii; A. baumannii CDC 273, ESBL/OXA) was 0.5 µg/mL. The MIC (Acinetobacter baumannii; A. baumannii CDC 274, ESBL/OXA) was 0.5 µg/mL, the MIC (Acinetobacter baumannii; A. baumannii CDC 275, ESBL/OXA) was 0.5 µg/mL and the MIC (Acinetobacter baumannii; A. baumannii CDC 277, ESBL/OXA) was 1 µg/mL. The MIC (Acinetobacter baumannii; A. baumannii CDC 284, ESBL/OXA) was 1 µg/mL, the MIC (Acinetobacter baumannii; A. baumannii CDC 307, OXA) was 0.5 µg/mL and the MIC (Acinetobacter baumannii; A. baumannii CDC 308, ESBL/OXA) was 0.5 µg/mL. It also gave an MIC (Acinetobacter baumannii; A. baumannii CDC 311, OXA) of 0.5 µg/mL, an MIC (Acinetobacter baumannii; A. baumannii CDC 312, OXA) of 0.5 µg/mL and an MIC (Acinetobacter baumannii; A. baumannii CDC 313, ESBL/OXA) of 0.5 µg/mL. For the same compound, the MIC (Acinetobacter baumannii; NCTC13304, A. baumannii NCTC 13304, OXA) was 0.5 µg/mL, the MIC (S. agalactiae; S. agalactiae MMX 3741, ERY^R CC^R) was 0.25 µg/mL and the MIC (S. agalactiae; S. agalactiae MMX 3743, ERY^R CC^R) was 0.25 µg/mL. The MIC (S. agalactiae; S. agalactiae MMX 4077, ERY^R CC^R) was 0.25 µg/mL, the MIC (S. agalactiae; S. agalactiae MMX 4079, ERY^R CC^R Pen^R MEM^R) was 0.5 µg/mL and the MIC (S. agalactiae; S. agalactiae MMX 4086, ERY^R CC^R) was 0.25 µg/mL. The MIC (E. faecalis; E. faecalis MMX 8960) was 0.5 µg/mL, the MIC (E. faecalis; E. faecalis MMX 8961) was 0.25 µg/mL and the MIC (E. faecalis; E. faecalis MMX 8962) was 0.25 µg/mL. It also gave an MIC (S. pneumoniae; ATCC49619, S. pneumoniae MMX 6837 (ATCC 49619), QC) of 0.5 µg/mL, an MIC (S. pneumoniae; S. pneumoniae MMX 880, Lev^R SXT^R CC^R Ery^R Pen^R) of 0.5 µg/mL and an MIC (S. pneumoniae; S. pneumoniae MMX 937, Mem^R SXT^R CC^R Ery^R Pen^R) of 8 µg/mL. It also gave an MIC (S. pneumoniae; S. pneumoniae MMX 3959, CC^R Ery^R) of 1 µg/mL, an MIC (S. pneumoniae; S. pneumoniae MMX 5440, Mem^R SXT^R CC^R Ery^R Pen^R) of 0.5 µg/mL and an MIC (S. pneumoniae; S. pneumoniae MMX 5445, Mem^R SXT^R CC^R Ery^R Pen^R) of 0.5 µg/mL. The MIC (S. pneumoniae; S. pneumoniae MMX 8133, Mem^R SXT^R CC^R Ery^R Pen^R) was 0.5 µg/mL, the MIC (S. pneumoniae; read-out: MIC values, pneumococci incl. multi-drug resistant) was 0.5 to 8 µg/mL and the MIC ([1]; ATCC29213 / MRSA / MSSA) was no more than 0.06 µg/mL. The MIC ([1]; MRSA) was no more than 0.06 µg/mL, the MIC ([1]; MRSA, read-out: MIC values) was less than 0.06 µg/mL and the MIC (Klebsiella pneumoniae [2]; K. pneumoniae MMX 4622, KPC-2, MEM^R, CAZ^R) was 1 µg/mL. It also gave an MIC (Klebsiella pneumoniae [2]; K. pneumoniae MMX 4623, KPC-2, MEM^R, CAZ^R, GM^R) of 0.5 µg/mL, an MIC (Klebsiella pneumoniae [2]; K. pneumoniae MMX 4653, KPC-3, Lev^R, MEM^R, CAZ^R) of 2 µg/mL and an MIC (Klebsiella pneumoniae [2]; K. pneumoniae MMX 4683, KPC-2, Lev^R, MEM^R, CAZ^R) of 1 µg/mL. It also gave an MIC (Klebsiella pneumoniae [2]; K. pneumoniae MMX 4684, ESBL, MEM^R) of 2 µg/mL, an MIC (Klebsiella pneumoniae [2]; K. pneumoniae MMX 4685, ESBL, Lev^R, MEM^R, CAZ^R) of 1 µg/mL and an MIC (Klebsiella pneumoniae [2]; K. pneumoniae MMX 4694, KPC-3, Lev^R, MEM^R, CAZ^R) of 1 µg/mL. The MIC (Klebsiella pneumoniae [2]; K. pneumoniae MMX 5979, NDM-1, Lev^R, MEM^R, CAZ^R, Gm^R) was 1 µg/mL, the “bactericidal activity against PA01” value ([3]; 0.1 μg/mL) was “not bactericidal” and the “effect of CF patient sputum on bactericidal activity” value ([3]; 10% CF patient sputum) was “partially inhibited”. The “time to sterilization below the limit of detection” value ([3]; with and without sputum) was no more than 5 h, the MIC (Pseudomonas aeruginosa [4]; ATCC27853, P. aeruginosa ATCC 27853, QC organism) was 1 µg/mL and the MIC (Pseudomonas aeruginosa [4]; P. aeruginosa CDC 230, VIM/OXA) was 2 µg/mL. It also gave an MIC (Pseudomonas aeruginosa [4]; P. aeruginosa CDC 231, KPC/OXA) of 2 µg/mL, an MIC (Pseudomonas aeruginosa [4]; P. aeruginosa CDC 241, IMP/OXA) of 8 µg/mL and an MIC (Pseudomonas aeruginosa [4]; P. aeruginosa CDC 246, NDM/OXA) of 2 µg/mL. For the same compound, the MIC (Pseudomonas aeruginosa [4]; P. aeruginosa CDC 250, NDM/OXA) was 2 µg/mL, the MIC (Pseudomonas aeruginosa [4]; P. aeruginosa CDC 356, KPC) was 1 µg/mL and the MIC (Pseudomonas aeruginosa [4]; P. aeruginosa CDC 439, IMP) was 1 µg/mL. For the same compound, the MIC (Pseudomonas aeruginosa [4]; P. aeruginosa CDC 444, VIM) was 1 µg/mL, the MIC (Pseudomonas aeruginosa [4]; P. aeruginosa CDC 457, VIM) was 2 µg/mL and the MIC (Pseudomonas aeruginosa [4]; P. aeruginosa CDC 516, KPC/AmpC) was 1 µg/mL. The MIC (Pseudomonas aeruginosa [4]; P. aeruginosa CDC 518, KPC/AmpC) was 1 µg/mL, the MIC (Klebsiella pneumoniae [5]; ATCCBAA1705, K. pneumoniae ATCC BAA-1705, ESBL/KPC) was 1 µg/mL and the MIC (Klebsiella pneumoniae [5]; ATCCBAA1705, K. pneumoniae ATCC BAA-1705, QC organism (Table 102)) was 1 µg/mL. For the same compound, the MIC (Klebsiella pneumoniae [5]; K. pneumoniae CDC 112, KPC) was 2 µg/mL, the MIC (Klebsiella pneumoniae [5]; K. pneumoniae CDC 113, ESBL/KPC) was 1 µg/mL and the MIC (Klebsiella pneumoniae [5]; K. pneumoniae CDC 115, ESBL/KPC) was 2 µg/mL. It also gave an MIC (Klebsiella pneumoniae [5]; K. pneumoniae CDC 120, ESBL/KPC) of 2 µg/mL, an MIC (Klebsiella pneumoniae [5]; K. pneumoniae CDC 126, ESBL/KPC) of 2 µg/mL and an MIC (Klebsiella pneumoniae [5]; K. pneumoniae CDC 129, ESBL/KPC) of 4 µg/mL. It also gave an MIC (Klebsiella pneumoniae [5]; K. pneumoniae CDC 135, ESBL/VIM) of 4 µg/mL, an MIC (Klebsiella pneumoniae [5]; K. pneumoniae CDC 138, ESBL/NDM) of 2 µg/mL and an MIC (Klebsiella pneumoniae [5]; K. pneumoniae CDC 158, ESBL/NDM/OXA) of 2 µg/mL. It also gave an MIC (Klebsiella pneumoniae [5]; K. pneumoniae MMX 9029, ESBL) of 2 µg/mL, an MIC (Enterobacter cloacae) of 2 µg/mL and an MIC (Pseudomonas aeruginosa [6]; ATCC27853, P. aeruginosa MMX 103 (ATCC 27853), QC) of 1 µg/mL. The MIC (Pseudomonas aeruginosa [6]; P. aeruginosa MMX 1381, MDR, Lev^R, Cip^R, MEM^R, CAZ^R) was 1 µg/mL, the MIC (Pseudomonas aeruginosa [6]; P. aeruginosa MMX 2562, MDR, Lev^R, Cip^R, MEM^R, CAZ^R) was 2 µg/mL and the MIC (Pseudomonas aeruginosa [6]; P. aeruginosa MMX 3991, MDR, Lev^R, Cip^R, MEM^R, CAZ^R) was 2 µg/mL. It also gave an MIC (Pseudomonas aeruginosa [6]; P. aeruginosa MMX 4654, IMP-7, Lev^R, Cip^R, MEM^R, CAZ^R) of 2 µg/mL, an MIC (Pseudomonas aeruginosa [6]; P. aeruginosa MMX 4697, VIM-2, Lev^R, Cip^R, MEM^R, CAZ^R) of 2 µg/mL and an MIC (Escherichia coli; ATCC25922, E. coli MMX 102 (ATCC 25922), QC) of 0.5 µg/mL. For the same compound, the MIC (Escherichia coli; ATCCBAA2469, E. coli MMX 5980 (ATCC BAA-2469), NDM-1, Lev^R, MEM^R, CAZ^R, Gm^R) was 1 µg/mL, the MIC (Escherichia coli; E. coli MMX 8423, ESBL, Lev^R, CAZ^R, Gm^R) was 1 µg/mL and the MIC (Escherichia coli; E. coli MMX 8424, ESBL, CAZ^R) was 0.5 µg/mL. It also gave an MIC (Escherichia coli; E. coli MMX 8425, ESBL, Lev^R, CAZ^R, Gm^R) of 1 µg/mL.
